This assay deals with T1, Human M4 receptors (Homo sapiens, UniProt P08173).
T1 construct: expressed in transfected cells; host or cells: HEK293 cells with Promega GloSensor cAMP technology, stably expressing hM4
T1 sequence (P08173 1-479): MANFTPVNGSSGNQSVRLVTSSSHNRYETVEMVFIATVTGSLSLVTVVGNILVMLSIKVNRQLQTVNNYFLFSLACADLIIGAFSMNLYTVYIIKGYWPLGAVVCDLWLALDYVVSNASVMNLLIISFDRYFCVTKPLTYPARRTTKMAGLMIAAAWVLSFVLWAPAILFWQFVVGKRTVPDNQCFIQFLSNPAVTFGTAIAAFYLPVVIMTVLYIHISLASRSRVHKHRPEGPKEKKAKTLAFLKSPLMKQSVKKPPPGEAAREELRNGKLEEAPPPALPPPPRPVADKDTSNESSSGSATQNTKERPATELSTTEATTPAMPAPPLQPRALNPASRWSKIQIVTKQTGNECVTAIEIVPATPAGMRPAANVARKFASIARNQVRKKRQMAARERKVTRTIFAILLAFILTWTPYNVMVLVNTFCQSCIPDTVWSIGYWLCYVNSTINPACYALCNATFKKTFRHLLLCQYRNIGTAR
Kind of assay: M4 PAM cAMP assay (GloSensor). As to conditions: for Emax: HEK293, read-out: M4 glosensor EC50 Mean Asymptote Maximum (%); for EC50 / M4 glosensor EC50 Mean Asymptote Maximum (%): HEK293 GloSensor cells expressing hM4, with EC20 acetylcholine and isoproterenol, geometric mean of 2-4 determinations unless otherwise indicated; for M4 glosensor EC50 Mean Asymptote Maximum (%): Emax = maximum asymptote of fitted dose response curve. It is filed as cell-based. As for the experimental part:
The M4 PAM binding affinity for the compounds of the present invention was determined utilizing the following biological assay(s):
The M4 cAMP assay was designed to determine the potency and efficacy of muscarinic positive allosteric modulators (PAMs). Human M4 receptors were stably expressed in Human embryonic kidney (HEK293) cells expressed with the Promega GloSensor™ cAMP technology.
HEK293 GloSensor cells expressing hM4 cells were cultured in growth media containing DMEM with 10% FBS, 1% Penicillin/Streptomycin, 500 μg/mL G418, 200 μg/mL Hygomycin B, and 1% Glutamax. […] Plates were incubated at 37 degrees C. and 5% CO2 for use after 24 hours.
Compound Preparation for Agonist Screen:
Each compound was tested at 10 concentrations in duplicate per experiment. Compound plates are spotted with 0.2 μL/well agonist at 400 times the final assay concentration. Positive and negative controls for the compound alone agonist response was 10 μM acetylcholine (Sigma #A2661) and DMSO, respectively. EC20 of acetylcholine was also used to define PAM activities.
Promega GloSensor™ reagent (Promega #E1291) had previously been aliquotted. […] Stock solution was mixed. Culture media in cell plates was discarded, then replaced with 40 μL/well pre-warmed equilibration media, then incubated in the dark at room temperature for 2 hours. During the incubation, stimulation media containing agonist and EC20 acetylcholine was prepared. […] Compounds are now 5 times the final assay concentration. The plate was mixed using a plate agitator. At the end of the 2 hour GloSensor™ incubation, add 10 μL of the CO2-independent media containing agonist, EC20 acetylcholine and isoproterenol to the cell plate. Cell plate was then incubated for 10 minutes at room temperature, and then read using an EnVision plate reader (Perkin Elmer).
Data was exported from the EnVision plate reader. The percent effect for each well was determined using the mean values for the positive and negative controls on each plate for each read, specifically 100*(compound−negative control)/(positive control−negative control). Dose response curves were fitted to the compound percent effect data using a 4-parameter logistic fit model. Data was reported as EC50 and Emax, with the Emax as the maximum asymptote of the fitted dose response curve.
For orientation: cAMP levels reflect the balance of adenylyl cyclase and phosphodiesterase activity.

The structures appear in SMILES notation.

The record followed here is US11905284B2, “5,7-dihydro-pyrrolo-pyridine derivatives” (PFIZER INC., priority 2016, dated 2024).

As for `Cc1cc(C)c2c(n1)CN(C(=O)C[C@H]1C[C@@H]1c1ccc3cncnc3c1)C2` (racemic) [Example 76, 1-(2,4-dimethyl-5,7-dihydro-6H-pyrrolo[3,4-b]pyridin-6-yl)-2-[trans-2-(quinazolin-7-yl)cyclopropyl]ethanone], the Emax turned out to be 45% and the EC50 is 1400 nM.
For `Cc1cc(C)c2c(n1)CN(C(=O)C[C@H]1C[C@@H]1c1ccccc1)C2` (racemic) [Example 77, 1-(2,4-dimethyl-5,7-dihydro-6H-pyrrolo[3,4-b]pyridin-6-yl)-2-[trans-2-phenylcyclopropyl]ethanone] the same measures were 176% and 2880 nM.
With `Cc1cc(C)c2c(n1)CN(C(=O)CC1CN(c3cccnc3)C1)C2C` (single isomer, unassigned) [Example 14, 2-[1-(Pyridin-3-yl)azetidin-3-yl]-1-(2,4,5-trimethyl-5,7-dihydro-6H-pyrrolo[3,4-b]pyridin-6-yl)ethanone], the “M4 glosensor EC50 Mean Asymptote Maximum (%)” value came to 62.5% and the EC50 amounted to 9080 nM.
On the same counts, the results for `Cc1cc(C)c2c(n1)CN(C(=O)CC1CN(c3cccnc3)C1)C2C` (single isomer, unassigned) [Example 15, 2-[1-(Pyridin-3-yl)azetidin-3-yl]-1-(2,4,5-trimethyl-5,7-dihydro-6H-pyrrolo[3,4-b]pyridin-6-yl)ethanone] are 106% and 28 nM.
For `Cc1nc2c(c(C)c1C)CN(C(=O)C[C@@H]1C[C@H]1c1cccnc1)C2` (single isomer, unassigned) [Example 37, 2-[trans-2-(pyridin-3-yl)cyclopropyl]-1-(2,3,4-trimethyl-5,7-dihydro-6H-pyrrolo[3,4-b]pyridin-6-yl)ethanone] the same measures were 85.8% and 1790 nM.
On the same counts, the results for `Cc1nc2c(c(C)c1C)CN(C(=O)C[C@@H]1C[C@H]1c1cccnc1)C2` (single isomer, unassigned) [Example 38, 2-[trans-2-(pyridin-3-yl)cyclopropyl]-1-(2,3,4-trimethyl-5,7-dihydro-6H-pyrrolo[3,4-b]pyridin-6-yl)ethanone] are 111% and 15.9 nM.
For `Cc1nc2c(c(C)c1Cl)CN(C(=O)C[C@@H]1C[C@H]1c1cncnc1)C2` (single isomer, unassigned) [Example 51, 1-(3-chloro-2,4-dimethyl-5,7-dihydro-6H-pyrrolo[3,4-b]pyridin-6-yl)-2-[trans-2-(pyrimidin-5-yl)cyclopropyl]ethanone], the Emax came to 102% and the half-maximal effective concentration (EC50) amounted to 4.75 nM.
In the case of `Cc1nc2c(c(C)c1C)CN(C(=O)CC1CN(c3ncns3)C1)C2` [Example 5, 2-[1-(1,2,4-Thiadiazol-5-yl)azetidin-3-yl]-1-(2,3,4-trimethyl-5,7-dihydro-6H-pyrrolo[3,4-b]pyridin-6-yl)ethanone], the Emax is 98.2% and the EC50 stood at 8.88 nM.
On the same counts, the results for `Cc1cc(C(F)F)nc2c1CN(C(=O)CC1CN(c3ccnc(C(F)(F)F)c3)C1)C2` [Example 6, 1-[2-(Difluoromethyl)-4-methyl-5,7-dihydro-6H-pyrrolo[3,4-b]pyridin-6-yl]-2-{1-[2-(trifluoromethyl)pyridin-4-yl]azetidin-3-yl}ethanone] are 92.4% and 9.75 nM.
For `COCc1cc(C)c2c(n1)CN(C(=O)CC1CN(c3ccnc(C(F)(F)F)c3)C1)C2` [Example 7, 1-[2-(methoxymethyl)-4-methyl-5,7-dihydro-6H-pyrrolo[3,4-b]pyridin-6-yl]-2-{1-[2-(trifluoromethyl)pyridin-4-yl]azetidin-3-yl}ethanone] the same measures were 99.8% and 17.4 nM.
For `COCc1cc(C)c2c(n1)CN(C(=O)CC1CN(c3ccnc(OC(F)F)c3)C1)C2` [Example 8, 2-{1-[2-(Difluoromethoxy)pyridin-4-yl]azetidin-3-yl}-1-[2-(methoxymethyl)-4-methyl-5,7-dihydro-6H-pyrrolo[3,4-b]pyridin-6-yl]ethanone] the same measures were 99.1% and 22.7 nM.
Consider `Cc1cc(CO)nc2c1CN(C(=O)CC1CN(c3cccnc3)C1)C2` [Example 9, 1-[2-(Hydroxymethyl)-4-methyl-5,7-dihydro-6H-pyrrolo[3,4-b]pyridin-6-yl]-2-[1-(pyridin-3-yl)azetidin-3-yl]ethanone], for which the Emax was found to be 86.5% and the EC50 stood at 17.2 nM.
On the same counts, the results for `Cc1c(C(F)F)nc2c(c1C)CN(C(=O)CC1CN(c3ccnc(OC(F)F)c3)C1)C2` [Example 10, 2-{1-[2-(Difluoromethoxy)pyridin-4-yl]azetidin-3-yl}-1-[2-(difluoromethyl)-3,4-dimethyl-5,7-dihydro-6H-pyrrolo[3,4-b]pyridin-6-yl]ethanone] are 99.5% and 28.9 nM.
For `Cc1nc2c(c(C)c1Cl)CN(C(=O)CC1CN(c3ccnc(C(F)F)c3)C1)C2` [Example 12, 1-(3-Chloro-2,4-dimethyl-5,7-dihydro-6H-pyrrolo[3,4-b]pyridin-6-yl)-2-{1-[2-(difluoromethyl)pyridin-4-yl]azetidin-3-yl}ethanone] the same measures were 119% and 7.1 nM.
On the same counts, the results for `Cc1nc2c(c(C)c1Cl)CN(C(=O)CC1CN(c3cccnc3)C1)C2` [Example 13, 1-(3-Chloro-2,4-dimethyl-5,7-dihydro-6H-pyrrolo[3,4-b]pyridin-6-yl)-2-[1-(pyridin-3-yl)azetidin-3-yl]ethanone] are 101% and 2.04 nM.
`Cc1ccc([C@@H]2C[C@H]2CC(=O)N2Cc3nc(C)cc(C)c3C2)cn1` [Example 16, 1-(2,4-Dimethyl-5,7-dihydro-6H-pyrrolo[3,4-b]pyridin-6-yl)-2-[(1S,2R)-2-(6-methylpyridin-3-yl)cyclopropyl]ethanone] registered an EC50 of over 10000 nM.
Turning to `Cc1ccc([C@H]2C[C@@H]2CC(=O)N2Cc3nc(C)cc(C)c3C2)cn1` [Example 17, 1-(2,4-Dimethyl-5,7-dihydro-6H-pyrrolo[3,4-b]pyridin-6-yl)-2-[(1R,2S)-2-(6-methylpyridin-3-yl)cyclopropyl]ethanone], the Emax amounted to 107% and a half-maximal effect (EC50) was put at 71.9 nM.
Regarding `Cc1ccc([C@H]2C[C@@H]2CC(=O)N2Cc3nc(C(F)F)cc(C)c3C2)cn1` [Example 18, 1-[2-(difluoromethyl)-4-methyl-5,7-dihydro-6H-pyrrolo[3,4-b]pyridin-6-yl]-2-[(1R,2S)-2-(6-methylpyridin-3-yl)cyclopropyl]ethanone], the Emax stood at 89% and the EC50 came to 37.7 nM.
For `COc1cc(C)c2c(n1)CN(C(=O)CC1CN(c3cccnc3)C1)C2` [Example 21, 1-(2-methoxy-4-methyl-5,7-dihydro-6H-pyrrolo[3,4-b]pyridin-6-yl)-2-[1-(pyridin-3-yl)azetidin-3-yl]ethanone] the same measures were 86.6% and 23.9 nM.
On the same counts, the results for `COc1nc2c(c(C)c1Cl)CN(C(=O)CC1CN(c3cccnc3)C1)C2` [Example 22, 1-(3-chloro-2-methoxy-4-methyl-5,7-dihydro-6H-pyrrolo[3,4-b]pyridin-6-yl)-2-[1-(pyridin-3-yl)azetidin-3-yl]ethanone] are 109% and 4.82 nM.
Regarding `Cc1nc2c(c(C)c1C)CN(C(=O)CC1CN(c3cccnc3)C1)C2` [Example 23, 2-[1-(pyridin-3-yl)azetidin-3-yl]-1-(2,3,4-trimethyl-5,7-dihydro-6H-pyrrolo[3,4-b]pyridin-6-yl)ethanone], the Emax turned out to be 92.2% and a half-maximal response (EC50) required 6.23 nM.
As to `Cc1cc(CO)nc2c1CN(C(=O)CC1CN(c3ccncn3)C1)C2` [Example 24, 1-[2-(hydroxymethyl)-4-methyl-5,7-dihydro-6H-pyrrolo[3,4-b]pyridin-6-yl]-2-[1-(pyrimidin-4-yl)azetidin-3-yl]ethanone], the Emax was determined as 93.8% and the midpoint of the response, the EC50, lay at 31 nM.

As usually defined, the EC50 is the midpoint of the concentration-response curve. A high value points to lower potency in that assay.
